{"source": "the supplement of paper PMC10307832", "test_in_all_cases": "relative viability (nuclei count vs DMSO), 5 days (fraction); higher = more cells survive", "key": {"[1]": {"compound": "C1CC2=C(C1)C=C(C=C2)OC3=NC(=C4C(=N3)N(C=N4)CC5=CC=C(C=C5)C6=CC=CC=C6)N[C@@H](CC7=CC=CC=C7)CO [QS11] + Nc1nc2[nH]cc(CCc3ccc(C(=O)N[C@@H](CCC(=O)O)C(=O)O)cc3)c2c(=O)[nH]1 [Pemetrexed] (partner 0.2 µM)", "how_it_was_run": "(§1)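 Lung cancer cell lines in 1536-well plates got either a single drug or a fixed anchor-drug dose together with five library-drug doses (not always all listed) in √10 steps, by pin tool, on the day after seeding. Nuclei were counted after 5 days, and relative viability is the treated-to-vehicle ratio of nuclei counts. Values are medians of duplicate plates.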"}, "[2]": {"compound": "C1CC2=C(C1)C=C(C=C2)OC3=NC(=C4C(=N3)N(C=N4)CC5=CC=C(C=C5)C6=CC=CC=C6)N[C@@H](CC7=CC=CC=C7)CO [QS11] + C[C@]1(O)C[C@@H](c2nc(-c3ccc4ccc(-c5ccccc5)nc4c3)c3c(N)nccn32)C1 [Linsitinib] (partner 1 µM)", "how_it_was_run": "as §1"}, "[3]": {"compound": "C[As](C)SC[C@H](NC(=O)CC[C@H](N)C(=O)O)C(=O)NCC(=O)O [Darinaparsin] + CC1(C)CCC(c2ccc(Cl)cc2)=C(CN2CCN(c3ccc(C(=O)NS(=O)(=O)c4ccc(N[C@H](CCN5CCOCC5)CSc5ccccc5)c(S(=O)(=O)C(F)(F)F)c4)cc3)CC2)C1 [Navitoclax] (partner 0.5 µM)", "how_it_was_run": "as §1"}, "[4]": {"compound": "C[As](C)SC[C@H](NC(=O)CC[C@H](N)C(=O)O)C(=O)NCC(=O)O [Darinaparsin] + Nc1ncn([C@H]2C[C@H](O)[C@@H](CO)O2)c(=O)n1 [Decitabine] (partner 2 µM)", "how_it_was_run": "as §1"}, "[5]": {"compound": "C[As](C)SC[C@H](NC(=O)CC[C@H](N)C(=O)O)C(=O)NCC(=O)O [Darinaparsin] + O=C(c1cc(Cc2n[nH]c(=O)c3ccccc23)ccc1F)N1CCN(C(=O)C2CC2)CC1 [Olaparib] (partner 8 µM)", "how_it_was_run": "as §1"}}}
{"cell line": "LCLC-97TM1", "values": [{"measurement": "relative viability", "setting": "[1]; first compound 0.253 µM", "value": 0.167}, {"measurement": "relative viability", "setting": "[1]; first compound 2.53 µM", "value": 0.182}, {"measurement": "relative viability", "setting": "[1]; first compound 8 µM", "value": 0.202}, {"measurement": "relative viability", "setting": "[2]; first compound 0.08 µM", "value": 0.15}, {"measurement": "relative viability", "setting": "[2]; first compound 0.253 µM", "value": 0.17}, {"measurement": "relative viability", "setting": "[2]; first compound 0.8 µM", "value": 0.233}, {"measurement": "relative viability", "setting": "[2]; first compound 2.53 µM", "value": 0.237}, {"measurement": "relative viability", "setting": "[2]; first compound 8 µM", "value": 0.293}, {"measurement": "relative viability", "setting": "[3]; first compound 0.08 µM", "value": 0.383}, {"measurement": "relative viability", "setting": "[3]; first compound 0.8 µM", "value": 0.947}, {"measurement": "relative viability", "setting": "[3]; first compound 2.53 µM", "value": 0.398}, {"measurement": "relative viability", "setting": "[3]; first compound 8 µM", "value": 0.579}, {"measurement": "relative viability", "setting": "[4]; first compound 0.08 µM", "value": 0.246}, {"measurement": "relative viability", "setting": "[4]; first compound 0.8 µM", "value": 0.252}, {"measurement": "relative viability", "setting": "[4]; first compound 2.53 µM", "value": 0.211}, {"measurement": "relative viability", "setting": "[4]; first compound 8 µM", "value": 0.258}, {"measurement": "relative viability", "setting": "[5]; first compound 0.08 µM", "value": 0.599}, {"measurement": "relative viability", "setting": "[5]; first compound 0.8 µM", "value": 0.303}, {"measurement": "relative viability", "setting": "[5]; first compound 2.53 µM", "value": 0.404}, {"measurement": "relative viability", "setting": "[5]; first compound 8 µM", "value": 0.612}]}
